The values below come from patent US20250032423A1, “HERBAL BIOACTIVES BASED IMMUNOSTIMULANT FORMULATION FOR POULTRY BIRDS & CATTLE AND PREPARATION THEREOF” (Edhas Technologies Inc., priority 2023, published 2025).

Assay [1] is described as follows: DPPH radical scavenging assay.
In assay [2] the test system is Pseudomonas aeruginosa. In words: MIC and fractional inhibitory concentration index (FICI) against Pseudomonas aeruginosa.
Assay [3] can be described thus: ABTS radical scavenging assay.

As for `O=C1O[C@H]([C@@H](O)CO)C(O)=C1O` [Ascorbic acid], the “IC50 (DPPH)” value in assay [1] came out at 10 ppm. The “% Inhibition (DPPH scavenging)” value in assay [1] (10 ppm) is recorded as 58.80%; in assay [1] (25 ppm), 64.65%; in assay [1] (50 ppm) it was 66.42%; in assay [1] (100 ppm) it was 71.18%; in assay [1] (250 ppm), 87.60%; in assay [1] (500 ppm), 90.65%.
As to `COc1cc(/C=C/C(=O)CC(=O)/C=C/c2ccc(O)c(OC)c2)ccc1O` [Curcumin], the MIC (in general, the smallest concentration in the dilution series that meets the test's criterion for growth inhibition) in assay [2] turned out to be 8100 µg/mL.
Same read-out and setting: next, `C=CCc1ccc(O)c(OC)c1` [Eugenol]: 10100 µg/mL; `Cc1ccc(C(C)C)c(O)c1` [Thymol]: 9200 µg/mL.
For the compound `Cc1c(C)c2c(c(C)c1O)CCC(C)(C(=O)O)O2` (stereo not drawn) [Trolox], the “IC50 (ABTS)” value in assay [3] came out at 10 ppm. For the same compound, the “% Inhibition (ABTS scavenging)” value is recorded as 54.48% in assay [3] (10 ppm); 63.01% in assay [3] (25 ppm); 73.1% in assay [3] (50 ppm); 86.71% in assay [3] (100 ppm); 89.12% in assay [3] (250 ppm); 94.08% in assay [3] (500 ppm). Besides, the “% Inhibition (ABTS scavenging)” value in assay [3] (1000 ppm) is recorded as 99.24%.
